Measured values as given in publication PMC10111423, “Antimalarial Imidazopyridines Incorporating an Intramolecular Hydrogen Bonding Motif: Medicinal Chemistry and Mechanistic Studies” (ACS Infectious Diseases, 2023).
Values after ≈ are worked out from the molar mass of the structure shown.

What was measured:
[1] = test system: multidrug-resistant (K1) strain of P. falciparum; assay: In vitro asexual blood-stage antiplasmodium pLDH assay, K1 strain; type: cell-based; conditions: Plasmodium falciparum, 72 h, n ≥ 3, read-out: In vitro antiplasmodium activity IC50 PfK1 strain
Method: (§1) Compounds were screened against multi-drug-resistant (K1) and sensitive (NF54) strains of P. falciparum in vitro using a parasite lactate dehydrogenase assay (pLDH) (the method is described fully in the Supporting Information). […]
(§2) In vitro Asexual Blood Stage Antiplasmodium Assay
(§3) Parasites were cultured as per the method of Trager and Jensen,1 with modifications. IC50 values were determined using parasite lactate dehydrogenase as a marker for survival (Makler […]
(§4) et al, 1993). The test samples were prepared to a 10 mmol/L stock solution in 100% DMSO.
(§5) Samples were tested as a suspension if not completely dissolved. Further dilutions to the desired starting concentration were freshly prepared in growth media on each occasion of the experiment. The standard antimalarial drugs chloroquine (CQ) and artesunate (Arts) were used as the reference drug in all experiments. A full dose-response was performed for all compounds in a 96-well plate to determine the concentration inhibiting 50% of parasite growth (IC50– value). Test samples were tested at a starting concentration of 6mmol/L, which was then serially diluted 2-fold in growth medium to generate the tested concentration range. The same dilution technique was used for all samples. CQ and Arts were tested from a starting concentration of 1µg/mL. The highest concentration of solvent to which the parasites were exposed was <0.1% and has no measurable effect on the parasite viability (data not shown).
(§6) The assay plate was incubated at 37 °C for 72h in a sealed gas chamber under 3% O2 and 4% CO2 with the balance being N2. After 72h, the wells in the assay plate were gently resuspended, and 15µL from each well was transferred to a duplicate plate containing 100µL of Malstat reagent and 25µL of nitroblue tetrazolium solution in each well. Plates were left to develop for 20 minutes in the dark and then absorbance of each well was quantified using a spectrophotometer at 620nm wavelength.
(§7) The remaining population of parasites at each concentration of the test compound was determined by comparing the absorbance of each well to the absorbance of a well containing […]
(§8) the drug-free control. […]
(§9) The initial 100 µg/mL solution is serially diluted 10-

[2] = test system: β-hematin; assay: β-Hematin inhibition assay (BHIA), cell-free NP-40 mediated; type: biochemical; conditions: mean of n = 3
Method: page 20: fold to attain six assay concentrations of 100-0.001 μg/mL. […] was used as the reference compound in this assay. The highest concentration of DMSO, which was used as the negative control, had no measurable effect on cell viability. After 44 hours of exposure of the cells to the test compounds, a solution of MTT was added. This was followed by an additional 4 hours of incubation at 37 °C. The assay plates were centrifuged, medium removed, and DMSO was added to the crystals. The amount of formazan was ascertained by measuring the absorbance at 540 nm. GraphPad Prism software was then used to generate IC50 values through a non-linear dose-response curve analysis. β-Hematin Inhibition Assay 20 mM stock solutions of controls and test compounds were made in DMSO. A solution […] was added to every well in columns 1-11 of a 96-well plate. 140 μL of water and 40 μL of 305.5 μM NP-40 were added to column 12 to mediate the formation of beta-hematin. 20 μL of test compounds (20 mM) were added to column 12 and 100 μL of this solution serially diluted to column 2, leaving column 1 blank (0 μM of test compound). 178.8 μL aliquot of hematin stock was suspended in 20 ml of a 1 M acetate buffer at pH 4.9. 100 μL of this hematin […] pH 7.4 and 50% pyridine) and 60 μL of acetone were added to all wells. The absorbances of plate wells were recorded at 405 nm on a SpectraMax plate reader. Sigmoidal dose-response curves with variable slopes were fitted to the absorbance data using GraphPad Prism to obtain the IC50 values for each compound. In vitro Microsomal Stability Assay The in vitro microsomal stability assay was performed in duplicate in a 96-well micro titre […] individually in human (pool of 50, mixed gender), rat (pool of 711, male Sprague Dawley) and mouse (pool of 1634, male CD1) liver microsomes (final protein concentration of 0.4 mg/mL; Xenotech, Kansas, USA), suspended in 0.1M phosphate buffer (pH 7.4). Incubations were S20

[3] = test system: chloroquine-sensitive (NF54) strain of P. falciparum; assay: In vitro asexual blood-stage antiplasmodium pLDH assay, NF54 strain; type: cell-based; conditions: Plasmodium falciparum, NF54; pLDH, 72 h, n ≥ 3; read-out: In vitro antiplasmodium activity IC50 PfNF54 strain
Method: as §1, §2, §3, §4, §5, §6, §7, §8, §9

[4] = In vitro cytotoxicity MTT assay; type: cell-based, Chinese hamster; conditions: Chinese hamster, Chinese hamster ovarian (CHO) cells; MTT assay
Method: (§10) In vitro cytotoxicity was performed on the Chinese Hamster Ovarian cell line by measuring cellular growth and survival calorimetrically through the MTT assay.[29],[30] The formation of tetrazolium salt was used as a measure of chemosensitivity and growth. (Details of this assay is described in the Supporting Information.) page 19: et al, 1993). The test samples were prepared to a 10 mmol/L stock solution in 100% DMSO. Samples were tested as a suspension if not completely dissolved. Further dilutions to the desired starting concentration were freshly prepared in growth media on each occasion of the experiment. The standard antimalarial drugs chloroquine (CQ) and artesunate (Arts) were used as the reference drug in all experiments. A full dose-response was performed for all compounds […] value). Test samples were tested at a starting concentration of 6mmol/L, which was then serially diluted 2-fold in growth medium to generate the tested concentration range. The same dilution technique was used for all samples. CQ and Arts were tested from a starting concentration of 1μg/mL. The highest concentration of solvent to which the parasites were exposed was <0.1% and has no measurable effect on the parasite viability (data not shown). The assay plate was incubated at 37 °C for 72h in a sealed gas chamber under 3% O2 and 4% CO2 with the balance being N2. After 72h, the wells in the assay plate were gently resuspended, and 15μL from each well was transferred to a duplicate plate containing 100μL of Malstat reagent and 25μL of nitroblue tetrazolium solution in each well. Plates were left to develop for 20 minutes in the dark and then absorbance of each well was quantified using a spectrophotometer at 620nm wavelength. The remaining population of parasites at each concentration of the test compound was determined by comparing the absorbance of each well to the absorbance of a well containing the drug-free control. Survival was plotted against concentration and the IC50 values were obtained using a non-linear dose-response curve fitting analysis via the Dotmatics software platform.2 In vitro Cytotoxicity Assay In vitro cytotoxicity was performed on the Chinese Hamster Ovarian cell line by measuring […] diphenyltetrazolium bromide (MTT) assay.3,4 The formation of tetrazolium salt was used as a measure of chemosensitivity and growth. 2 mg/mL stock solutions of the test compounds were prepared in DMSO and stored at -20 °C until required. The stock solution was subsequently diluted with the assay medium to make up an initial concentration of 100 μg/mL. The initial 100 μg/mL solution is serially diluted 10- S19 page 20: fold to attain six assay concentrations of 100-0.001 μg/mL. […] was used as the reference compound in this assay. The highest concentration of DMSO, which was used as the negative control, had no measurable effect on cell viability. After 44 hours of exposure of the cells to the test compounds, a solution of MTT was added. This was followed by an additional 4 hours of incubation at 37 °C. The assay plates were centrifuged, medium removed, and DMSO was added to the crystals. The amount of formazan was ascertained by measuring the absorbance at 540 nm. GraphPad Prism software was then used to generate IC50 values through a non-linear dose-response curve analysis. β-Hematin Inhibition Assay 20 mM stock solutions of controls and test compounds were made in DMSO. A solution […] was added to every well in columns 1-11 of a 96-well plate. 140 μL of water and 40 μL of 305.5 μM NP-40 were added to column 12 to mediate the formation of beta-hematin. 20 μL of test compounds (20 mM) were added to column 12 and 100 μL of this solution serially diluted to column 2, leaving column 1 blank (0 μM of test compound). 178.8 μL aliquot of hematin stock was suspended in 20 ml of a 1 M acetate buffer at pH 4.9. 100 μL of this hematin suspension was then added into each well, and the plates were incubated for ±5 hrs at 37°C. […]

[5] = test system: Chinese hamster ovarian (CHO) cell line; assay: In vitro cytotoxicity MTT assay; type: cell-based; conditions: CHO vs PfNF54
Method: as §10

[6] = Solubility; type: physicochemical; conditions: pH 6.5, aqueous buffer
Text: Table 1 In Vitro Antiplasmodium Activity, Cytotoxicity, BHIA, and Solubility | column: Solubility pH 6.5, μM

Row | Structure (SMILES) | IC50 [1] [µM] | IC50 [2] [µM] | IC50 [3] [µM] | solubility [6] [µM] | IC50 at 44 h [4] [µM] | SI (selectivity index) = IC50 CHO/IC50 PfNF54 [5]
1 | CCN(CCNc1cc2[nH]c(C3(C(F)(F)F)CC3)nc2cn1)Cc1ccc(Cl)cc1O [Compound 7, 5-Chloro-2-((ethyl(2-((2-(1-(trifluoromethyl)cyclopropyl)-1H-imidazo[4,5-c]pyridin-6-yl)amino)ethyl)amino)methyl)phenol] | 6 | 275 | 1.67 | 175 (≈ 79.4 µg/mL) | > 50 | >29.94
2 | CCN(CCNc1cc2[nH]c(C3CC(F)(F)C3)nc2cn1)Cc1ccc(Cl)cc1O [Compound 10, 5-Chloro-2-(((2-((2-(3,3-difluorocyclobutyl)-1H-imidazo[4,5-c]pyridin-6-yl)amino)ethyl)(ethyl)amino)methyl)phenol] | 5.27 | 76 | 0.86 | 175 (≈ 76.3 µg/mL) | > 50 | >58.14
3 | CCN(CCNc1cc2[nH]c(C3CCOCC3)nc2cn1)Cc1ccc(Cl)cc1O [Compound 3, 5-Chloro-2-((ethyl(2-((2-(tetrahydro-2H-pyran-4-yl)-1H-imidazo[4,5-c]pyridin-6-yl)amino)ethyl)amino)methyl)phenol] | 4.19 | 722 | 2.37 | 120 (≈ 51.6 µg/mL) | > 50 | >21.09

Now those with a lower IC50 [1], led by results:

Row | IC50 [1] [µM] | IC50 [2] [µM] | IC50 [3] [µM] | solubility [6] [µM] | Structure (SMILES) | IC50 at 44 h [4] [µM] | SI (selectivity index) = IC50 CHO/IC50 PfNF54 [5]
4 | 3.9 | 285 | 1.03 | 175 (≈ 75.1 µg/mL) | CCN(CCNc1cc2[nH]c(C3CCCN3C)nc2cn1)Cc1ccc(Cl)cc1O (stereo not drawn) [Compound 13, 5-Chloro-2-((ethyl(2-((2-(1-methylpyrrolidin-2-yl)-1H-imidazo[4,5-c]pyridin-6-yl)amino)ethyl)amino)methyl)phenol] | > 50 | >48.54
5 | 2.12 | 80 | 0.69 | 140 (≈ 59.9 µg/mL) | CCN(CCNc1cc2[nH]c(C3CCCCC3)nc2cn1)Cc1ccc(Cl)cc1O [Compound 11, 5-Chloro-2-(((2-((2-cyclohexyl-1H-imidazo[4,5-c]pyridin-6-yl)amino)ethyl)(ethyl)amino)methyl)phenol] | > 50 | >72.46
6 | 1.71 | 239 | 0.95 | 135 (≈ 67 µg/mL) | CCN(CCNc1cc2[nH]c([C@H]3CC[C@@H](C(F)(F)F)CC3)nc2cn1)Cc1ccc(Cl)cc1O [Compound 17, 5-Chloro-2-((ethyl(2-((2-((1r,4r)-4-(trifluoromethyl)cyclohexyl)-1H-imidazo[4,5-c]pyridin-6-yl)Amino)ethyl)amino)methyl)phenol] | 49.1 | 51.68
